Data reported in a melting point compilation (Tetko et al.; mined from patent text by program, amines drawn as free bases though some values may be those of a salt).

In the case of `CCOC(=O)C1=C(COCCNc2nc(C(=O)NC)cs2)NC(C)=C(C(=O)OC)C1c1ccccc1Cl` (stereo not drawn), the melting point is reported as 120 °C.
Molecule `CC(Cl)c1nc2c(C(F)(F)F)cccc2c(O)c1C(=O)Nc1nccs1` (stereo not drawn) has a melting point of 190 to 192 °C.
Molecule `CNC(=O)N1C[C@@H](Oc2cccc(C(F)(F)F)c2)[C@@H]1C` (relative stereo) has a melting point of 89 to 91 °C.
`CC(C)(C)OC(=O)NC1CCN(CCO)CC1` gave a melting point of 66 °C.
Work on `COc1ccc(-c2cc(CO)c(=O)n(Cc3ccc(Cl)cc3)c2)cc1` yielded a melting point of 128 °C.
Molecule `CCOc1ccc2nc(CCl)cn2c1` has a melting point of 95 to 96 °C.
`CN1C(=O)CCC2(C)c3ccc(CSc4ccccc4)cc3CCC12` (stereo not drawn) gave a melting point of 144 to 146 °C.
For `COc1cc2c(CCN)c(C)[nH]c2c(Cl)c1Cl`, the melting point was 184 to 186 °C.
`C[C@H]1Cn2c(=O)[nH]c3ccc(Br)c(c32)CN1C(=O)OC(C)(C)C` showed a melting point of 229 °C.
`COC(=O)CC(C(=O)c1ccc(SC)cc1)c1ccccc1` (stereo not drawn) gave a melting point of 82.4 to 83 °C.
`N#Cc1ccc(C2CC(=O)c3ccccc3N2)cc1` (stereo not drawn) showed a melting point of 206 to 208 °C.
`Cn1c(=O)c2cccnc2n(C)c1=O` showed a melting point of 160 to 161 °C.
`COc1cc2c3ccc(OC)c(OC)c3c(=O)n(Cc3ccccc3)c2cc1OC` showed a melting point of 183 to 184 °C.
`O=C1N(CCN2CCC(c3noc4cc(F)ccc34)CC2)CCN1c1ccccc1` showed a melting point of 158 to 160 °C.
`CCN1C(=O)Cc2cc(C=O)ccc21` gave a melting point of 126 to 127 °C.
Molecule `CN1CCN(C2=Nc3cc(Cl)ccc3Cn3nnnc32)CC1` has a melting point of 228 to 230 °C.
In the case of `CS(=O)(=O)NC(=O)COc1ccc(CCCS(=O)(=O)c2ccc(Cl)cc2)cc1NC(=O)c1cccc(OCc2nc3ccccc3s2)c1`, the melting point is reported as 153 °C.
With `Cc1ccc(OC(=O)N2CC3CC(CN(CC(O)COc4ccc(C#N)cc4)C3)C2)cc1` (stereo not drawn) the melting point was 125 to 126 °C.
Molecule `CCOC(=O)C1=C(C)NC(=S)N(C(=O)OCC)C1c1cccc(C)c1` (stereo not drawn) has a melting point of 93 to 95 °C.
Work on `CC(C)(C)C(=O)OCc1nc2cc3c(cc2c(=O)[nH]1)CCC3` yielded a melting point of 185 to 190 °C.
`O=[N+]([O-])c1ccc(CN2CCc3ccccc32)cc1` showed a melting point of 95 to 97 °C.
Molecule `CCCCOCCOc1ccc(-c2ccc3c(c2)C=C(C(=O)Nc2ccc(/C(Cc4nccn4CCC)=N/OCC)cc2)CCN3CC(C)C)cc1` has a melting point of 156 °C.
Work on `COC(=O)CCC(=O)c1ccc(NS(C)(=O)=O)cc1` yielded a melting point of 181 to 183 °C.
Molecule `CCc1c(Sc2ccccc2)n(CC2CC=CC2)c(=O)[nH]c1=O` has a melting point of 112 to 113 °C.
`CCOC(=O)C1C(=O)N(CC)c2cc3c(cc21)OCC3` (stereo not drawn) gave a melting point of 82 to 84 °C.
For `C#CCOc1cc(OCC#C)ncn1`, the melting point was 74 °C.
With `COc1ccc(C(=O)NCCOc2cccc3c2OCCO3)c(OC)c1OC` the melting point was 128 °C.
Molecule `COC(=O)C(Cl)=NNc1ccc(Cl)cc1` has a melting point of 149 to 150 °C.
Work on `CCCCCCCNC(=O)N(C)c1cccc(-c2ccc(CCC(=O)O)cc2OC)c1` yielded a melting point of 100 to 101 °C.
Molecule `CCCCCCC(O)CNCCCCCCNCC(O)CCCCCC` (stereo not drawn) has a melting point of 124 to 127 °C.
Work on `Cc1ncc(CN2CC=C(C#Cc3ccccc3)CC2)c(N)n1` yielded a melting point of 187 to 188 °C.
`O=CCCNc1[nH]c(-c2ccc(F)cc2)nc1-c1ccccc1` showed a melting point of 201 to 202 °C.
Molecule `CCCCCCCCCCCCCCCOc1ccc(C(C)=O)o1` has a melting point of 67 to 68 °C.
`c1ccc(Sc2sc(-c3ccccc3)cc2-c2ccccc2)cc1` showed a melting point of 96 to 97 °C.
In the case of `Cc1cc(C)c(-c2cn(C)c3nc(N(C)C)n(C)c(=O)c23)c(C)c1`, the melting point is reported as 127 to 128 °C.
For `COc1ccc(CCN(C)CCCC(C)(C(=O)OC(C)C)c2ccc(OC)c(OC)c2)cc1OC` (stereo not drawn), the melting point was 85 to 87 °C.
For `CC(=O)c1ccc(NC(=O)N2CCC3(CC2)CN(S(N)(=O)=O)c2ccccc23)cc1`, the melting point was 233 to 236 °C.
`COc1ccc2cc(C(=O)CNC(=O)c3cn(C)c4ccccc34)ccc2c1` gave a melting point of 177 to 180 °C.
Work on `Nc1ncnc2nc(-c3cccc(Cl)c3)cnc12` yielded a melting point of 260 to 264 °C.
For `COC(=O)C1Oc2ccccc2C(C)c2ccccc2O1` (stereo not drawn), the melting point was 95 to 120 °C.
For `Cc1ccc2[nH]c3c(c2c1)CCNC3(C(=O)OC(C)(C)C)C1(NC(=O)OCc2ccccc2)CCC1` (stereo not drawn), the melting point was 219 to 220 °C.
For `Cc1ccc(S(=O)(=O)n2c(-c3cn(C)c4ccc(O)cc34)cc3cccnc32)cc1`, the melting point was 256 to 257 °C.
`CC(=O)Nc1ccc(C(=O)O)c(O)c1` showed a melting point of 221 to 223 °C.
Work on `O=C(O)c1cnn2ccc(-c3ccc(Cl)cc3)nc12` yielded a melting point of 309 to 311 °C.
Work on `CCCCCCc1cc2c(s1)-n1c(C)nnc1CN=C2c1ccccc1C` yielded a melting point of 135 to 137 °C.
In the case of `CNC(=O)n1sc(OC(C)C)nc1=O`, the melting point is reported as 95 °C.
In the case of `CC(C)N1C(=O)c2cnc(-c3ccccc3)nc2N(C(=O)CN2CCCCC2)c2ccccc21`, the melting point is reported as 152 to 154 °C.
For `CCOC(=O)c1cc2c(nc(C)n2C)c(O)c1CCC(=O)c1ccccc1`, the melting point was 205 to 206 °C.
`O=[N+]([O-])c1ccccc1CCN1CCN(c2ccccc2)CC1` gave a melting point of 76 °C.
In the case of `CCCCCCCCOc1ccc(CC(=O)[C@H]2CC[C@H](CCCCC)CC2)c(F)c1F`, the melting point is reported as 59 °C.
`CCOC(=O)c1ccc(C#CC(O)c2cccc3c2C(C)(C)CCS3)cc1` (stereo not drawn) showed a melting point of 108 °C.
With `CC(C)(C)c1nn(-c2c(Cl)cc(C(F)(F)F)cc2Cl)c(Br)c1[N+](=O)[O-]` the melting point was 105 to 108 °C.
For `CCOP(=O)(OCC)c1c(C)c2c(c(C)c1-c1c(OC)ccc3ccccc13)COC2`, the melting point was 77.3 to 78.9 °C.
`O=C(O)Cc1ccc(N2CC3=C(CC=CC3)C2=O)cc1` gave a melting point of 198 to 200 °C.
For `CCOC(=O)c1nc2cc(Br)ccn2n1`, the melting point was 158 to 160 °C.
Work on `NC(=O)c1cc(N(Cc2c(F)c(F)c(C(F)(F)F)c(F)c2F)C(=O)C(F)(F)F)ccc1OC(=O)C(F)(F)F` yielded a melting point of 179 to 180 °C.
For `CCC(=O)Nc1csc(Br)n1`, the melting point was 122 to 125 °C.
Molecule `O=C1CCC(c2ccc(NC(=O)C3(Cl)CC3)cc2)=NN1` has a melting point of 231 to 232 °C.
`ClCCCOc1cccc(OCCCCl)c1` showed a melting point of 135 to 136 °C.
Molecule `N=C(N)N1CC(c2ccccc2)C(c2ccc(Cl)cc2)=N1` (stereo not drawn) has a melting point of 187 to 189 °C.
For `COC(=O)c1csc(-c2ccc(F)cc2)n1`, the melting point was 103 to 105 °C.
With `Oc1ccc(N2CCN(CCC3C=Cc4ccccc43)CC2)cc1` (stereo not drawn) the melting point was 228 °C.
Work on `CC1(CNC(=O)CCl)OCCO1` yielded a melting point of 128 to 130 °C.
For `CCOC(=O)c1sc(N2CCN(Cc3ccccc3)C2=O)nc1C`, the melting point was 122 to 124 °C.
For `C=CCNC(=O)Oc1cc(-n2c(=O)cc(C(F)(F)F)n(C)c2=O)c(F)cc1Cl`, the melting point was 98 to 100 °C.
In the case of `COc1ccccc1Nc1ncccc1[N+](=O)[O-]`, the melting point is reported as 151 to 153 °C.
With `N#Cc1cc(N2CCC(N3CCOCC3)CC2)ccc1N` the melting point was 178 to 180 °C.
Molecule `Cc1nccc2[nH]c(=O)c(-c3noc(C4CC4)n3)cc12` has a melting point of 259 to 260 °C.
Work on `Nc1ccc2c(c1)CN(CCC1CCCCN1S(=O)(=O)c1cccc3ccccc13)CC2` (stereo not drawn) yielded a melting point of 212 to 218 °C.
Work on `CNC(=O)c1sc(C(C)(C)C)cc1N` yielded a melting point of 230 to 231 °C.
For `COC(=O)C(I)C(O)c1ccccc1` (stereo not drawn), the melting point was 56 °C.
`COC(=O)c1ccc(Cc2cc3cc(Cl)ccc3n2S(=O)(=O)c2ccc(C(C)C)cc2)cc1F` showed a melting point of 127 °C.
With `CNc1c(C)c(C)c(OC(C)=O)c(C)c1[N+](=O)[O-]` the melting point was 143 to 146 °C.
`CCN1c2ncc(CC(OC(C)=O)c3ccncc3)cc2C(=O)N(C)c2ccc(Cl)nc21` (stereo not drawn) gave a melting point of 157 to 158 °C.
`CCCCOC1CCC(=O)N1` (stereo not drawn) showed a melting point of 36 to 38 °C.
`CCCN(CCC)CCOc1ccc(Cn2c(-c3ccc(O)cc3)c(C)c3cc(O)ccc32)cc1` gave a melting point of 83 to 86 °C.
In the case of `Cc1cc(-c2nc3cccnn3c2-c2ccnc(NC(=O)c3ccc(Cl)nc3)c2)ccc1F`, the melting point is reported as 225 to 226 °C.
`CCCc1nc(CO)c(C)[nH]1` showed a melting point of 134 to 136 °C.
`COC(=O)C(c1ccccc1)N1CCN(c2ccc([N+](=O)[O-])cc2)CC1` (stereo not drawn) gave a melting point of 92 °C.
`CC(C)(C)C(=O)Nc1ccc2c(c1)ncn1c(=O)c(C(=O)O)cnc21` showed a melting point of 252 to 256 °C.
Molecule `COc1cc(-c2oc3cc(I)ccc3c(=O)c2O)cc(OC)c1OCc1ccccc1` has a melting point of 169 to 171 °C.
Molecule `O=C(Nc1cccnc1)c1c(OCC2CC2)ccc2oc3ccccc3c12` has a melting point of 238 to 240 °C.
In the case of `CCCCCCCCCCc1ccc(CO)cc1`, the melting point is reported as 39 to 40 °C.
For `CC1(C)CCC(C)(C)c2cc3oc(-c4ccc(C(=O)O)cc4)nc3cc21`, the melting point was 290 °C.
Work on `CC#CCOc1ccc(S(=O)(=O)C2(C(=O)O)CCCN(Cc3ccc(Cl)cc3)C2)cc1` (stereo not drawn) yielded a melting point of 115 °C.
For `O=[N+]([O-])c1ccc(Cl)cc1NN1CCOCC1`, the melting point was 155 °C.
With `O=S(=O)(CF)c1ccc(C2=C(c3ccc(F)cc3)CCC2)cc1` the melting point was 123 to 124 °C.
For `COc1ccccc1NC(=O)c1ccccc1SSc1ccccc1C(=O)Nc1ccccc1OC`, the melting point was 154 to 155 °C.
With `NC(=O)c1cc2ncccc2n1-c1ccc([N+](=O)[O-])cc1` the melting point was greater than 260 °C.
`O=C(OCCC1CCCCC1)c1ncn2c1[C@@H]1CCCN1C(=O)c1c(Cl)cccc1-2` gave a melting point of 131 to 132 °C.
With `Cc1c(Br)ccc(S(C)(=O)=O)c1C=NO` the melting point was 192 to 194 °C.
`COc1cc(OCC(F)(F)C(F)F)nc(Oc2cc(C(F)(F)F)nn2C)c1` gave a melting point of 73 to 74 °C.
For `COC(=O)Nc1cn2cc(S(=O)(=O)c3ccccc3)ccc2n1`, the melting point was 300 °C.
Molecule `COc1ccc(-c2csc(C(=O)O)n2)cc1OC1CC2CCC1C2` (stereo not drawn) has a melting point of 112 to 113 °C.
Molecule `O=C1Nc2cc(C(F)(F)F)ccc2N2CCN(CCc3ccccn3)CC12` (stereo not drawn) has a melting point of 194 to 196 °C.
`CC(C)N1CCN(Cc2ccc(Cl)nc2)C1=N[N+](=O)[O-]` showed a melting point of 138 to 142 °C.
Molecule `Oc1ncc(-c2cccc(Cl)c2)cn1` has a melting point of 235 to 236 °C.
In the case of `CCCCCNS(=O)(=O)NC(=O)/C(C)=C/c1ccc(OCCOC)cc1Oc1ncc(C(F)(F)F)cc1Cl`, the melting point is reported as 152 to 153 °C.
`CC(C)(C)OC(=O)N1CCC(OCc2ccccc2)C1CC(=O)Cn1cnc2cccc(F)c2c1=O` (stereo not drawn) gave a melting point of 221 °C.
Molecule `CCOc1c(C(=O)NCC(O)CN(CC)CC)n(-c2ccccc2)c2ccccc12` (stereo not drawn) has a melting point of 146 to 148 °C.
For `O=C(O)c1cc(S(=O)(=O)N(CCc2ccc(Cl)cc2)Cc2ccccc2)ccc1Br`, the melting point was 142 to 144 °C.
With `CC(=O)Nc1ncc(Sc2ccc(NS(C)(=O)=O)cc2)s1` the melting point was 236 to 239 °C.
Molecule `Nc1c2c(nn1-c1ccc(Cl)cc1)CCCC2` has a melting point of 140 to 142 °C.
